From PubChem BioAssay (NCI)
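Briefly, cells in 96-well plates were exposed to five compound concentrations for 48 h, and endpoints were estimated by linear interpolation. Abbreviation: GI50, concentration required for 50% inhibition of growth. TGI: total growth inhibition.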

Tests used:
Assay in all cases: inhibition of tumour cell growth, NCI panel, 48 h
SNB-19 CNS = tested on: SNB-19 CNS
HOP-62 NSCLC = tested on: HOP-62 NSCLC
KM12 colon = tested on: KM12 colon
SF-539 CNS = tested on: SF-539 CNS
NCI-H226 lung = tested on: NCI-H226 lung
NCI-H460 lung = tested on: NCI-H460 lung
MALME-3M melanoma = tested on: MALME-3M melanoma
M14 melanoma = tested on: M14 melanoma
SK-MEL-2 melanoma = tested on: SK-MEL-2 melanoma
HT29 colon = tested on: HT29 colon
OVCAR-8 ovarian = tested on: OVCAR-8 ovarian
NCI-H23 lung = tested on: NCI-H23 lung
NCI/ADR-RES ovarian = tested on: NCI/ADR-RES ovarian
TK-10 renal = tested on: TK-10 renal
LOX IMVI melanoma = tested on: LOX IMVI melanoma
BT-549 breast = tested on: BT-549 breast
RPMI-8226 leukemia = tested on: RPMI-8226 leukemia
HCT-15 colon = tested on: HCT-15 colon
U251 CNS = tested on: U251 CNS
SR leukemia = tested on: SR leukemia
SF-268 CNS = tested on: SF-268 CNS
RXF 393 renal = tested on: RXF 393 renal
SW-620 colon = tested on: SW-620 colon
UO-31 renal = tested on: UO-31 renal
SK-MEL-28 melanoma = tested on: SK-MEL-28 melanoma
MDA-MB-231 breast = tested on: MDA-MB-231 breast
COLO 205 colon = tested on: COLO 205 colon
DU-145 prostate = tested on: DU-145 prostate
K-562 leukemia = tested on: K-562 leukemia
HCC-2998 colon = tested on: HCC-2998 colon
HOP-92 NSCLC = tested on: HOP-92 NSCLC
IGROV1 ovarian = tested on: IGROV1 ovarian
CCRF-CEM leukemia = tested on: CCRF-CEM leukemia
SK-OV-3 ovarian = tested on: SK-OV-3 ovarian
SK-MEL-5 melanoma = tested on: SK-MEL-5 melanoma
SF-295 CNS = tested on: SF-295 CNS
A549 NSCLC = tested on: A549 NSCLC
EKVX NSCLC = tested on: EKVX NSCLC
HS 578T breast = tested on: HS 578T breast
UACC-257 melanoma = tested on: UACC-257 melanoma
OVCAR-4 ovarian = tested on: OVCAR-4 ovarian
PC-3 prostate = tested on: PC-3 prostate
MOLT-4 leukemia = tested on: MOLT-4 leukemia
SN12C renal = tested on: SN12C renal
786-0 renal = tested on: 786-0 renal
ACHN renal = tested on: ACHN renal
OVCAR-5 ovarian = tested on: OVCAR-5 ovarian

SMILES: COc1cc(C(C)c2ccc3c(ccn3C)c2)cc(OC)c1OC (centres undefined)
- GI50 (SNB-19 CNS): 0.0405 µM
- TGI (SNB-19 CNS): > 100 µM
- GI50 (HOP-62 NSCLC): 0.0385 µM
- TGI (HOP-62 NSCLC): > 100 µM
- GI50 (KM12 colon): < 0.01 µM
- TGI (KM12 colon): 60.2 µM
- GI50 (SF-539 CNS): < 0.01 µM
- TGI (SF-539 CNS): 15.2 µM
- GI50 (NCI-H226 lung): 10.9 µM
- TGI (NCI-H226 lung): 57.3 µM
- GI50 (NCI-H460 lung): 0.0117 µM
- TGI (NCI-H460 lung): > 100 µM
- GI50 (MALME-3M melanoma): 11.6 µM
- TGI (MALME-3M melanoma): 63.3 µM
- GI50 (M14 melanoma): < 0.01 µM
- TGI (M14 melanoma): 22 µM
- GI50 (SK-MEL-2 melanoma): 0.0984 µM
- TGI (SK-MEL-2 melanoma): 95.8 µM
- GI50 (HT29 colon): < 0.01 µM
- TGI (HT29 colon): 14.2 µM
- GI50 (OVCAR-8 ovarian): 0.0363 µM
- TGI (OVCAR-8 ovarian): 38.5 µM
- GI50 (NCI-H23 lung): 0.0268 µM
- TGI (NCI-H23 lung): > 100 µM
- GI50 (NCI/ADR-RES ovarian): < 0.01 µM
- TGI (NCI/ADR-RES ovarian): > 100 µM
- GI50 (TK-10 renal): 16.5 µM
- TGI (TK-10 renal): 92.6 µM
- GI50 (LOX IMVI melanoma): 0.0207 µM
- TGI (LOX IMVI melanoma): > 100 µM
- GI50 (BT-549 breast): 0.0231 µM
- TGI (BT-549 breast): 19.3 µM
- GI50 (RPMI-8226 leukemia): 0.0362 µM
- TGI (RPMI-8226 leukemia): 22.6 µM
- GI50 (HCT-15 colon): 0.0106 µM
- TGI (HCT-15 colon): > 100 µM
- GI50 (U251 CNS): < 0.01 µM
- TGI (U251 CNS): 39 µM
- GI50 (SR leukemia): < 0.01 µM
- TGI (SR leukemia): > 100 µM
- GI50 (SF-268 CNS): 0.0393 µM
- TGI (SF-268 CNS): > 100 µM
- GI50 (RXF 393 renal): < 0.01 µM
- TGI (RXF 393 renal): > 100 µM
- GI50 (SW-620 colon): < 0.01 µM
- TGI (SW-620 colon): > 100 µM
- GI50 (UO-31 renal): 0.189 µM
- TGI (UO-31 renal): 62.2 µM
- GI50 (SK-MEL-28 melanoma): 8.09 µM
- TGI (SK-MEL-28 melanoma): > 100 µM
- GI50 (MDA-MB-231 breast): 0.0551 µM
- TGI (MDA-MB-231 breast): 34.8 µM
- GI50 (COLO 205 colon): < 0.01 µM
- TGI (COLO 205 colon): 0.0461 µM
- GI50 (DU-145 prostate): 0.0343 µM
- TGI (DU-145 prostate): > 100 µM
- GI50 (K-562 leukemia): < 0.01 µM
- TGI (K-562 leukemia): > 100 µM
- GI50 (HCC-2998 colon): 0.0276 µM
- TGI (HCC-2998 colon): > 100 µM
- GI50 (HOP-92 NSCLC): 0.0251 µM
- TGI (HOP-92 NSCLC): 45.4 µM
- GI50 (IGROV1 ovarian): 0.0291 µM
- TGI (IGROV1 ovarian): > 100 µM
- GI50 (CCRF-CEM leukemia): 0.0307 µM
- TGI (CCRF-CEM leukemia): > 100 µM
- GI50 (SK-OV-3 ovarian): < 0.01 µM
- TGI (SK-OV-3 ovarian): 60.7 µM
- GI50 (SK-MEL-5 melanoma): < 0.01 µM
- TGI (SK-MEL-5 melanoma): 0.391 µM
- GI50 (SF-295 CNS): < 0.01 µM
- TGI (SF-295 CNS): 32.5 µM
- GI50 (A549 NSCLC): 0.0233 µM
- TGI (A549 NSCLC): > 100 µM
- GI50 (EKVX NSCLC): 0.0674 µM
- TGI (EKVX NSCLC): > 100 µM
- GI50 (HS 578T breast): 0.0148 µM
- TGI (HS 578T breast): > 100 µM
- GI50 (UACC-257 melanoma): 19.4 µM
- TGI (UACC-257 melanoma): 77.6 µM
- GI50 (OVCAR-4 ovarian): 0.414 µM
- TGI (OVCAR-4 ovarian): > 100 µM
- GI50 (PC-3 prostate): 0.0171 µM
- TGI (PC-3 prostate): > 100 µM
- GI50 (MOLT-4 leukemia): 0.0449 µM
- TGI (MOLT-4 leukemia): > 100 µM
- GI50 (SN12C renal): 0.0671 µM
- TGI (SN12C renal): > 100 µM
- GI50 (786-0 renal): 0.0288 µM
- TGI (786-0 renal): 26.7 µM
- GI50 (ACHN renal): 0.0172 µM
- TGI (ACHN renal): > 100 µM
- GI50 (OVCAR-5 ovarian): 0.0559 µM
- TGI (OVCAR-5 ovarian): > 100 µM
